Source: ChEMBL document CHEMBL3232869, “Anti-inflammatory components of Euphorbia humifusa Willd” (Bioorg Med Chem Lett, 2014)
The source made the active and inactive calls. The rule behind the calls is not given here.

Experiments:
[1] = test system: RAW264.7; assay: Antiinflammatory activity in mouse RAW264.7 cells assessed as inhibition of LPS-induced TNF-alpha secretion at 10 uM after 18 hrs by sandwich ELISA; type: functional; conditions: for inhibition at 10 µM: RAW264.7, 18 h
[2] = test system: RAW264.7; assay: Antiinflammatory activity in mouse RAW264.7 cells assessed as inhibition of LPS-induced nitric oxide production at 0.4 uM after 18 hrs by griess reaction analysis; type: functional, cell-based
[3] = test system: RAW264.7; assay: Cytotoxicity against mouse RAW264.7 cells assessed as cell viability at 50 uM after 18 hrs by MTT assay in presence of LPS; type: cell-based; conditions: raw264.7, 18 h
[4] = test system: RAW264.7; assay: Antiinflammatory activity in mouse RAW264.7 cells assessed as inhibition of LPS-induced nitric oxide production at 10 uM after 18 hrs by griess reaction analysis; type: functional; conditions: for inhibition at 10 µM: RAW264.7, 18 h
[5] = test system: RAW264.7; assay: Antiinflammatory activity in mouse RAW264.7 cells assessed as inhibition of LPS-induced nitric oxide production after 18 hrs by griess reaction analysis; type: functional, cell-based; conditions: RAW264.7, 18 h
[6] = test system: RAW264.7; assay: Antiinflammatory activity in mouse RAW264.7 cells assessed as inhibition of LPS-induced TNF-alpha secretion at 0.4 uM after 18 hrs by sandwich ELISA; type: functional, cell-based
[7] = molecular target: T1, Bifunctional epoxide hydrolase 2 (Homo sapiens) (UniProt P34913); assay: Inhibition of sEH (unknown origin) assessed as substrate PHOME hydrolysis at 25 uM after 1 hr by fluorescence method
T1 sequence (whole entry): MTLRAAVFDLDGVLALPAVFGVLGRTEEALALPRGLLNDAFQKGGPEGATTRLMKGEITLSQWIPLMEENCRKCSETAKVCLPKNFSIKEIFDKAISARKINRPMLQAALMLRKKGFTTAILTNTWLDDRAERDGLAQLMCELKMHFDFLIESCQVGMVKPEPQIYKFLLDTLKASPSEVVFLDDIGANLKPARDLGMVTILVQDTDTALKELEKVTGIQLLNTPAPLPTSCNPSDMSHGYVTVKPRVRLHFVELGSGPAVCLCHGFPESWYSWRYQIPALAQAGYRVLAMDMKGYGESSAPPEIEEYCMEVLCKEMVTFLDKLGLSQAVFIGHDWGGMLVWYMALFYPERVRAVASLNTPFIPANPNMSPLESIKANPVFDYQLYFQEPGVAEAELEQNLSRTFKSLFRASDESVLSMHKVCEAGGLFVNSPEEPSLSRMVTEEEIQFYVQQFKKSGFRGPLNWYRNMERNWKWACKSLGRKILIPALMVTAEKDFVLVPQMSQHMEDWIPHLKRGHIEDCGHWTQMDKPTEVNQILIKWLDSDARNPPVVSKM

[8] = test system: RAW264.7; assay: Antiinflammatory activity in mouse RAW264.7 cells assessed as inhibition of LPS-induced TNF-alpha secretion after 18 hrs by sandwich ELISA; type: functional, cell-based; conditions: RAW264.7, 18 h
[9] = molecular target: T2, Bifunctional epoxide hydrolase 2 (Homo sapiens, UniProt P34913); assay: Inhibition of sEH (unknown origin) assessed as substrate PHOME hydrolysis after 1 hr by fluorescence method
T2 sequence (P34913 whole entry): T1 sequence (whole entry)

SMILES	inhibition [1]	inhibition [2]	Activity [3]	inhibition [4]	IC50 [5]	inhibition [6]	inhibition at 10 µM [1]	inhibition [7]	IC50 [8]	inhibition at 10 µM [4]	IC50 [9]
COC(=O)Cc1c2c3c(cc(O)c(O)c3oc1=O)C(=O)O[C@@H]2C(=O)OC	Active	inactive	Non-toxic	Active	19.5 µM	inactive	–	–	–	–	–
COC/C=C/c1ccc(O[C@@H]2O[C@H](CO)[C@@H](O)[C@H](O)[C@H]2O)c(OC)c1	–	inactive	Non-toxic	–	19.1 µM	inactive	21.5%	< 40%	16.5 µM	32.9%	–
COC(=O)c1cc(O)c(O)c(O)c1 [GALLIC ACID METHYL ESTER]	Active	inactive	Non-toxic	–	11.1 µM	inactive	–	–	29.4 µM	35.1%	–
CC1=CC[C@@H](C(C)(C)O[C@@H]2O[C@H](CO[C@@H]3OC[C@H](O)[C@H](O)[C@H]3O)[C@@H](O)[C@H](O)[C@H]2O)CC1	Active	inactive	Non-toxic	Active	–	inactive	–	< 40%	> 50 µM	–	–
COc1cc(/C=C/CO)cc(OC)c1O[C@@H]1O[C@H](CO)[C@@H](O)[C@H](O)[C@H]1O [SYRINGIN]	Active	inactive	Non-toxic	Active	24 µM	inactive	–	< 40%	34.9 µM	–	–
C[C@@H]1O[C@@H](OC[C@H]2O[C@@H](Oc3c(-c4ccc(O)cc4)oc4cc(O)cc(O)c4c3=O)[C@H](O)[C@@H](O)[C@@H]2O)[C@H](O)[C@H](O)[C@H]1O [NICOTIFLOROSIDE]	Active	inactive	Non-toxic	inactive	45.3 µM	inactive	–	–	41.5 µM	–	–
OC[C@H]1O[C@@H](OCc2ccccc2)[C@H](O)[C@@H]1O	–	inactive	Non-toxic	Active	24.5 µM	inactive	21.5%	–	18.4 µM	–	–
C[C@@H]1O[C@@H](Oc2c(-c3ccc(O)c(O)c3)oc3cc(O)cc(O)c3c2=O)[C@H](OC(=O)c2cc(O)c(O)c(O)c2)[C@H](O)[C@H]1O	Active	inactive	Non-toxic	inactive	–	inactive	–	> 40%	26.1 µM	–	18.6 µM
CC(=O)O[C@H]1[C@H](OC[C@H]2O[C@@H](Oc3ccc(O)cc3)[C@H](O)[C@@H](O)[C@@H]2O)O[C@@H](C)[C@H](OC(=O)c2ccc(O)cc2)[C@H]1O	Active	inactive	Non-toxic	inactive	> 50 µM	inactive	–	–	> 50 µM	–	–
O=C(CCc1ccc(O)cc1)c1c(O)cc(O)cc1O[C@@H]1O[C@H](CO)[C@@H](O)[C@H](O)[C@H]1O [PHLORIZIN]	–	inactive	Non-toxic	inactive	–	inactive	21.5%	> 40%	14.4 µM	–	41.7 µM
O=c1c(O[C@@H]2O[C@H](CO)[C@@H](O)[C@H](O)[C@H]2O)c(-c2cc(O)c(O)c(O)c2)oc2cc(O)cc(O)c12	Active	inactive	Non-toxic	Active	21.2 µM	inactive	–	> 40%	–	–	17.2 µM
O=c1c(O)c(-c2ccc(O)c(O)c2)oc2cc(O)cc(O)c12 [QUERCETIN]	Active	inactive	Non-toxic	inactive	> 50 µM	inactive	–	> 40%	–	–	33.5 µM
O=C(O[C@H]1[C@H](Oc2c(-c3ccc(O)c(O)c3)oc3cc(O)cc(O)c3c2=O)O[C@H](CO)[C@@H](O)[C@@H]1O)c1cc(O)c(O)c(O)c1	–	inactive	Non-toxic	inactive	–	inactive	21.5%	> 40%	16.4 µM	–	18 µM
O=C(O[C@H]1[C@H](Oc2c(-c3ccc(O)cc3)oc3cc(O)cc(O)c3c2=O)O[C@H](CO)[C@@H](O)[C@@H]1OC(=O)c1cc(O)c(O)c(O)c1)c1cc(O)c(O)c(O)c1	Active	inactive	Non-toxic	inactive	–	inactive	–	> 40%	–	–	23.8 µM
O=C(O[C@H]1[C@H](Oc2c(-c3ccc(O)cc3)oc3cc(O)cc(O)c3c2=O)O[C@H](CO)[C@@H](O)[C@@H]1O)c1cc(O)c(O)c(O)c1	–	inactive	Non-toxic	inactive	–	inactive	21.5%	> 40%	17.2 µM	–	27.4 µM
COC/C=C/c1ccc(O[C@@H](CO)CO[C@@H]2O[C@H](CO)[C@@H](O)[C@H](O)[C@H]2O)c(OC)c1	Active	inactive	Non-toxic	Active	28.6 µM	inactive	–	< 40%	27.2 µM	–	–
COC/C=C/c1cc(OC)c(O[C@@H]2O[C@H](CO)[C@@H](O)[C@H](O)[C@H]2O)c(OC)c1	–	inactive	Non-toxic	–	17.2 µM	inactive	21.5%	–	17.5 µM	30%	–
O=C(O[C@@H]1O[C@@H]2COC(=O)c3cc(O)c(O)c(O)c3-c3c(cc(O)c(O)c3O)C(=O)O[C@H]([C@H]1O)[C@@H]2O)c1cc(O)c(O)c(O)c1 [CORILAGIN]	Active	inactive	Non-toxic	Active	25.1 µM	inactive	–	> 40%	38.5 µM	–	–
O=c1c(O[C@@H]2O[C@H](CO)[C@@H](O)[C@H](O)[C@H]2O)c(-c2ccc(O)c(O)c2)oc2cc(O)cc(O)c12 [ISOQUERCETIN]	Active	inactive	Non-toxic	inactive	–	inactive	–	> 40%	> 50 µM	–	28.4 µM
Cc1ccc(-c2cc(C(F)(F)F)nn2-c2ccc(S(N)(=O)=O)cc2)cc1 [CELECOXIB]	–	–	–	–	1.84 µM	–	–	–	1.28 µM	–	–
